According to patent US20080247991A1, “Solution Additives For the Attenuation of Protein Aggregation” (priority 2004, published 2008):
pKd: −log10 of the molar value.

What was measured:
[1] = target: T1, insulin binding to immobilized monoclonal anti-insulin (Homo sapiens, UniProt P01308); test: Surface plasmon resonance (Biacore 3000): globular protein association/dissociation kinetics in buffer with additive; settings: for ka / kd: pH 7.4, estimated error 15%
T1 construct: purchased Sigma-Aldrich (insulin); Fitzgerald Industries (antibody) I8530; 10-130 clone M322214
T1 sequence (P01308 25-54 limits assumed): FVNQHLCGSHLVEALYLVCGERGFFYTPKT
T1 sequence (P01308 90-110 limits assumed): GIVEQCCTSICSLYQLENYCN
Experimental: Surface plasmon resonance experiments were conducted to measure the effect of added ArgHCl and GuHCl on the kinetics of globular protein association and dissociation versus an equimolar salt control (NaCl). The data set shown in the figure is a composition of 8 different concentration runs plus replicates, for a total of 16 runs. At t=140 sec, the flow cell with immobilized anti-insulin was exposed to a constant concentration of insulin in the range of 2 to 188 nM for 3 minutes. During this 3 minutes, the antibody and antigen were free to associate and dissociate. The net reaction is the binding of free antigen in solution, resulting in an increase in detector response proportional to the mass of antigen bound. At t=320 sec, the insulin concentration in the flow cell inlet is returned to zero, and the bound antigen then dissociates from the surface. All 16 runs were simultaneously fit to a binding model by minimizing the squared residuals to yield the association and dissociation rate constants, ka and kd. This process was repeated to yield association, dissociation, and equilibrium constant data for the model systems in various buffers as shown in Table 4.
Globular Protein Association Kinetics—Protein association and dissociation rate constants, ka and kd, were measured for globular proteins via surface plasmon resonance on a Biacore 3000 instrument. Monoclonal anti-insulin was immobilized on a Biacore CM5 sensor chip via amine coupling. The amount of immobilized antibody was selected to give a detector response in the range of 50-100 RU when antigen was present. A reference surface was created by activating and deactivating the surface without coupling an antibody to it.
Different concentrations of insulin in the nanomolar range ([…]) were prepared by dilution and injected serially into the antibody-containing and reference flow cells. […] Pocker, Y. & Biswas, Subhasis, B. (1981) Biochemistry 20, 4354-4361. The dissociation rate was sufficiently fast in buffer that a regeneration buffer was not required. Kinetic constants were extracted by simultaneous fitting of ka and kd to each set of sensorgrams using a 1:1 kinetic model in the BIAevaluation 3.0 software package.

carbonic anhydrase II [2] = target: T2, carbonic anhydrase II (Bos taurus, UniProt P00921); test: Size exclusion HPLC of multimers formed during refolding of carbonic anhydrase; set-up: purchased Sigma-Aldrich C2522; species or system bovine; settings: for A2, percentage of total carbonic anhydrase / A3-5, percentage of total carbonic anhydrase / A6-15, percentage of total carbonic anhydrase / M (monomer), percentage of total carbonic anhydrase / Large multimers, percentage of total carbonic anhydrase: 0.5 M additive; for Large multimers, percentage of total carbonic anhydrase: inferred by difference
T2 sequence (P00921 whole entry): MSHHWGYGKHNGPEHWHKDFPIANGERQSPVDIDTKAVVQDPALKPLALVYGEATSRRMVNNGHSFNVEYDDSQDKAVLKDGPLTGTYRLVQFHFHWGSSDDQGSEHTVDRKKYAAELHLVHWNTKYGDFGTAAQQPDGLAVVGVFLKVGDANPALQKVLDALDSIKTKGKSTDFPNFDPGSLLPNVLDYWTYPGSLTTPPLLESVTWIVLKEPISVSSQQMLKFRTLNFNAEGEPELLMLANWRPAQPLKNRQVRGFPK
Experimental: Size exclusion HPLC experiments were performed to analyze the distribution of multimers formed during refolding. CA was refolded with three different additives, 0.5M NaCl, 0.5M GuHCl, and 0.5M ArgHCl, relative to a base refolding buffers of 0.5M GuHCl, as done in the esterase activity assays above. […] Other than this protein concentration difference, these experiments allow direct comparison of how an additional 0.5M of the three different cations affect refolding.
The samples were not filtered prior to introduction into the HPLC column.
Size Exclusion HPLC—Size exclusion HPLC (SE-HPLC) experiments were performed on a Beckman System Gold HPLC instrument equipped with a Tosohaas G3000SWXL size exclusion column and a UV detector. 30 μl samples were introduced to the column by a constant flow of 1 ml/min mobile phase. Each sample ran for 15 minutes, with carbonic anhydrase eluting between 6 and 10 minutes, depending on its molecular weight and buffer. […] A mixture of lysozyme, carbonic anhydrase, and bovine serum albumin (monomer and dimer) was used as a standard to calibrate molecular weight to retention time. Using this calibration curve and the breakthrough time of the column, the largest multimer that could pass through the column was a 15-mer. When significant mass was missing from a chromatogram, large multimers were quantitated by difference. The presence of large multimers was confirmed via turbidity or dynamic light scattering for each buffer. The instrument was cleaned with 30 μl injections of 4M GuHCl, a denaturing concentration found to dissociate and elute precipitates and large soluble carbonic anhydrase multimers.

carbonic anhydrase II [3] = target: T2, carbonic anhydrase II; test: Carbonic anhydrase refolding yield by esterase activity (pNPA); settings: for α/α0 / α (refolding selectivity parameter, kr/kagg): 0.5 M additive, base buffer 0.5 M GuHCl; for α/α0: relative to 0.5M NaCl; for α (refolding selectivity parameter, kr/kagg): fit to second-order aggregation model; for order of yield of active protein as a function of buffer additive: equimolar (0.5M) additives
Experimental: Esterase activity assays were performed as a function of initial unfolded protein concentration and buffer composition to determine how equimolar concentrations of NaCl, ArgHCl, and GuHCl each affected refolding yield (FIG. 16).
High concentrations of carbonic anhydrase (>300 μM) were denatured in 6M GuHCl and equilibrated overnight. Refolding was initiated by dilution to 0.5M GuHCl with 50 mM Tris-HCl buffer, pH 7.5. This final GuHCl concentration was selected because it yields a mixture of active, refolded protein and aggregates. The distribution of this mixture was analyzed via esterase activity, size exclusion HPLC, and dynamic light scattering as described above.
Carbonic Anhydrase Esterase Activity—Esterase activity of carbonic anhydrase was assessed using para-nitrophenylacetate (pNPA) as the substrate as described previously. […] Briefly, 10 μl samples of carbonic anhydrase solution were added to 500 μl of Tris-HCl, pH 7.5 and 50 μl of 50 mM pNPA in acetonitrile. Kinetics of hydrolysis of pNPA was observed by the increase in absorbance at 400 nm due to the appearance of the paranitrophenolate ion (pNP^−). In all cases, the observed hydrolysis rate in absorbance units per second (AU/s) under these conditions was constant (pseudo-zero order). Hydrolysis rates were corrected for the hydrolysis of pNPA by the buffer for each type of buffer used. […] The active protein concentration data was reproducible to within 5-8% in replicated experiments.

[4] = 0.5 M additive, relative to HBS-EP + 0.5 M NaCl
[5] = 0.5M, relative to 0.5M NaCl control

Cl.N=C(N)NCCC[C@H](N)C(=O)O [ArgHCl, arginine hydrochloride]
ka ([1]; 0.5 M additive in HBS-EP): 12000 M⁻¹ s⁻¹
kd ([1]; 0.5 M additive in HBS-EP): 0.022 s⁻¹
pKd ([1]; 0.5 M additive in HBS-EP, KD ≡ kd/ka): 5.74
ka/ka0 [1, 4]: 0.27
kd/kd0 [1, 4]: 1.6
effect on association rate of insulin and anti-insulin [1, 5]: slowed
effect on dissociation rate of insulin and anti-insulin [1, 5]: accelerated
yield of monomeric protein (carbonic anhydrase II [2]; 0.5M added, versus 0.5M NaCl): significantly increased
average aggregate molecular weight (ignoring the monomer) (carbonic anhydrase II [2]; 0.5M additive, compared among the three buffers): lowest
A2, percentage of total carbonic anhydrase (carbonic anhydrase II [2]; time 2 min, [U]0 = 20 μM): 30%
A3-5, percentage of total carbonic anhydrase (carbonic anhydrase II [2]; time 2 min, [U]0 = 20 μM): 25%
A6-15, percentage of total carbonic anhydrase (carbonic anhydrase II [2]; time 2 min, [U]0 = 20 μM): 21%
M (monomer), percentage of total carbonic anhydrase (carbonic anhydrase II [2]; time 2 min, [U]0 = 20 μM): 22%
Large multimers, percentage of total carbonic anhydrase (carbonic anhydrase II [2]; time 2 min, [U]0 = 20 μM): 2%
A2, percentage of total carbonic anhydrase (carbonic anhydrase II [2]; time 20 min, [U]0 = 20 μM): 7%
A3-5, percentage of total carbonic anhydrase (carbonic anhydrase II [2]; time 20 min, [U]0 = 20 μM): 14%
A6-15, percentage of total carbonic anhydrase (carbonic anhydrase II [2]; time 20 min, [U]0 = 20 μM): 26%
M (monomer), percentage of total carbonic anhydrase (carbonic anhydrase II [2]; time 20 min, [U]0 = 20 μM): 54%
Large multimers, percentage of total carbonic anhydrase (carbonic anhydrase II [2]; time 20 min, [U]0 = 20 μM): −1%
A2, percentage of total carbonic anhydrase (carbonic anhydrase II [2]; time 38 min, [U]0 = 20 μM): 4%
A3-5, percentage of total carbonic anhydrase (carbonic anhydrase II [2]; time 38 min, [U]0 = 20 μM): 11%
A6-15, percentage of total carbonic anhydrase (carbonic anhydrase II [2]; time 38 min, [U]0 = 20 μM): 24%
M (monomer), percentage of total carbonic anhydrase (carbonic anhydrase II [2]; time 38 min, [U]0 = 20 μM): 62%
Large multimers, percentage of total carbonic anhydrase (carbonic anhydrase II [2]; time 38 min, [U]0 = 20 μM): −1%
A2, percentage of total carbonic anhydrase (carbonic anhydrase II [2]; time 1500 min, [U]0 = 20 μM): 0%
A3-5, percentage of total carbonic anhydrase (carbonic anhydrase II [2]; time 1500 min, [U]0 = 20 μM): 0%
A6-15, percentage of total carbonic anhydrase (carbonic anhydrase II [2]; time 1500 min, [U]0 = 20 μM): 19%
M (monomer), percentage of total carbonic anhydrase (carbonic anhydrase II [2]; time 1500 min, [U]0 = 20 μM): 80%
Large multimers, percentage of total carbonic anhydrase (carbonic anhydrase II [2]; time 1500 min, [U]0 = 20 μM): 1%
α/α0 (carbonic anhydrase II [3]): 5.0
α (refolding selectivity parameter, kr/kagg) (carbonic anhydrase II [3]): 47 µM
order of yield of active protein as a function of buffer additive (carbonic anhydrase II [3]): NaCl<<ArgHCl<GuHCl

[Cl-].[Na+] [NaCl, sodium chloride]
ka ([1]; 0.5 M additive in HBS-EP): 44000 M⁻¹ s⁻¹
kd ([1]; 0.5 M additive in HBS-EP): 0.014 s⁻¹
A2, percentage of total carbonic anhydrase (carbonic anhydrase II [2]; time 2 min, [U]0 = 5 μM): 0%
A3-5, percentage of total carbonic anhydrase (carbonic anhydrase II [2]; time 2 min, [U]0 = 5 μM): 0%
A6-15, percentage of total carbonic anhydrase (carbonic anhydrase II [2]; time 2 min, [U]0 = 5 μM): 0%
M (monomer), percentage of total carbonic anhydrase (carbonic anhydrase II [2]; time 2 min, [U]0 = 5 μM): 56%
Large multimers, percentage of total carbonic anhydrase (carbonic anhydrase II [2]; time 2 min, [U]0 = 5 μM): 44%
A2, percentage of total carbonic anhydrase (carbonic anhydrase II [2]; time 20 min, [U]0 = 5 μM): 0%
A3-5, percentage of total carbonic anhydrase (carbonic anhydrase II [2]; time 20 min, [U]0 = 5 μM): 0%
A6-15, percentage of total carbonic anhydrase (carbonic anhydrase II [2]; time 20 min, [U]0 = 5 μM): 0%
M (monomer), percentage of total carbonic anhydrase (carbonic anhydrase II [2]; time 20 min, [U]0 = 5 μM): 56%
Large multimers, percentage of total carbonic anhydrase (carbonic anhydrase II [2]; time 20 min, [U]0 = 5 μM): 44%
A2, percentage of total carbonic anhydrase (carbonic anhydrase II [2]; time 38 min, [U]0 = 5 μM): 0%
A3-5, percentage of total carbonic anhydrase (carbonic anhydrase II [2]; time 38 min, [U]0 = 5 μM): 0%
A6-15, percentage of total carbonic anhydrase (carbonic anhydrase II [2]; time 38 min, [U]0 = 5 μM): 0%
M (monomer), percentage of total carbonic anhydrase (carbonic anhydrase II [2]; time 38 min, [U]0 = 5 μM): 56%
Large multimers, percentage of total carbonic anhydrase (carbonic anhydrase II [2]; time 38 min, [U]0 = 5 μM): 44%
α/α0 (carbonic anhydrase II [3]): 1
α (refolding selectivity parameter, kr/kagg) (carbonic anhydrase II [3]): 9.3 µM
order of yield of active protein as a function of buffer additive (carbonic anhydrase II [3]): NaCl<<ArgHCl<GuHCl
